Test results reported in PubChem BioAssay (NCI).
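Cells were grown in 96-well plates and exposed to each compound for 48 hours at five concentrations; endpoints were interpolated linearly between bracketing concentrations, or set to the highest concentration if not reached. Definition used: TGI = concentration required for complete inhibition of growth.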

Experiments:
Assay in all cases: NCI tumour cell line growth inhibition, 48 h
[1] = test system: HT29 colon
[2] = test system: 786-0 renal
[3] = test system: UO-31 renal
[4] = test system: SK-MEL-2 melanoma
[5] = test system: A549 NSCLC
[6] = test system: SNB-75 CNS
[7] = test system: SK-OV-3 ovarian
[8] = test system: OVCAR-4 ovarian
[9] = test system: CCRF-CEM leukemia
[10] = test system: SK-MEL-5 melanoma
[11] = test system: U251 CNS
[12] = test system: EKVX NSCLC
[13] = test system: NCI-H23 lung
[14] = test system: MALME-3M melanoma
[15] = test system: NCI/ADR-RES ovarian
[16] = test system: SF-295 CNS
[17] = test system: HL-60(TB) leukemia

Row | Compound | TGI [1] [µM] | TGI [2] [µM] | TGI [3] [µM] | TGI [4] [µM] | TGI [5] [µM] | TGI [6] [µM] | TGI [7] [µM] | TGI [8] [µM] | TGI [9] [µM] | TGI [10] [µM] | TGI [11] [µM] | TGI [12] [µM] | TGI [13] [µM] | TGI [14] [µM] | TGI [15] [µM] | TGI [16] [µM] | TGI [17] [µM]
1 | COc1ccc2c(c1)-c1[nH]c3ccc(OC)cc3c1CC2 | 24.9 | 34 | 31.4 | 28.4 | 30.2 | 26.9 | 33.8 | 29.4 | 80.6 | 30.9 | 39.2 | 20.8 | 25.8 | 28.7 | 24.8 | 26.3 | 
2 | CN1CCCOC(c2ccc([N+](=O)[O-])cc2)O1 (configuration not stated) | > 100 | > 100 | > 100 | > 100 | > 100 | > 100 | > 100 | > 100 | > 100 | > 100 | > 100 | > 100 | > 100 | > 100 | > 100 | > 100 | 
3 | Cc1ccc(C2SC(N)=Nc3c2c(C)nn3C(=O)c2ccccc2O)cc1 (configuration not stated) | > 10 | > 10 | > 10 | > 10 | > 10 | 7.14 | > 10 | > 10 | > 10 | > 10 | > 10 | > 10 | > 10 | > 10 | > 10 |  | 
4 | C[N+]1(Cc2ccc(Cl)c(Cl)c2)CCCC1C1CCCN(Cc2ccc(Cl)c(Cl)c2)C1 (configuration not stated) | > 100 | > 100 | > 100 | > 100 | > 100 | > 100 | > 100 | > 100 |  | > 100 | > 100 | > 100 | > 100 | > 100 | > 100 | > 100 | 
5 | Cc1cc2nc(N3C(=O)/C(=C/c4ccccc4S)N=C3c3ccccc3)sc2cc1C | 76.7 | 60.5 | > 100 | 56.7 | > 100 | > 100 | > 100 | > 100 | 46.6 | > 100 | > 100 | > 100 |  |  | 92.3 | > 100 | 82
6 | CN(C(=O)C1CCCCCC1=O)c1ccccc1Cl (configuration not stated) | > 100 | > 100 | > 100 |  | > 100 | > 100 | > 100 | > 100 |  | > 100 | > 100 | > 100 | > 100 | > 100 | > 100 | > 100 | 
7 | COC(=O)[C@@H](NC(=O)N(CCC#N)CCCN(C(=O)N[C@H](Cc1ccccc1)C(=O)OC)c1ccccc1)C(C)C |  | > 100 | > 100 | > 100 | > 100 | > 100 | > 100 | > 100 | > 100 | > 100 | > 100 | > 100 | > 100 | 92.7 | > 100 | > 100 | 
8 | CCCCCCCCCCCCCCCCOCC(CP(=O)([O-])OCC[n+]1ccccc1)OC (configuration not stated) | 15.9 | 28.7 | 21.2 | 31.9 | 24.1 | 22.3 | 32.7 | 24.1 | 25.6 | 27.7 |  | 34.7 | 14.8 | 32.8 |  | 15.4 | 5.19
9 | Cc1c(Cl)c(S(N)(=O)=O)cc2c1NC=NS2(=O)=O | > 100 | > 100 | > 100 |  | > 100 | > 100 | > 100 | > 100 | > 100 | > 100 | > 100 | > 100 | > 100 | > 100 | > 100 | > 100 | 
10 | Cc1ccc(C2=C(C#N)C(=O)N3CCN=C3S2)cc1 | > 100 | > 100 | > 100 | > 100 | > 100 | > 100 | > 100 | > 100 | > 100 | > 100 | > 100 | > 100 | > 100 | > 100 | > 100 | > 100 | 
11 | CC(=O)C(CN(Cc1ccccc1)Cc1ccccc1)C(c1ccccc1)c1c(O)c2ccccc2oc1=O (configuration not stated) | > 100 | > 100 | > 100 | > 100 | > 100 | > 100 | > 100 | > 100 | > 100 | > 100 | > 100 | > 100 | > 100 | > 100 |  | > 100 | > 100
12 | CC(O)c1ccc[n+](Cc2ccccc2)c1 (configuration not stated) | > 400 | > 400 |  | > 400 | > 400 |  | > 400 |  | > 400 | > 400 | > 400 | > 400 | > 400 | > 400 |  | > 400 | > 400
13 | CC(C)C(Sc1nc(-c2ccccc2)c(-c2ccccc2)[nH]1)C(=O)NN (configuration not stated) | > 100 | > 100 | > 100 | > 100 | > 100 | > 100 | > 100 | > 100 | > 100 | > 100 | > 100 |  | > 100 | > 100 |  | > 100 | > 100
14 | CN(C)CC1CCCC(CN(C)C)C1=NOC(=O)c1ccccc1 (configuration not stated) | > 100 | > 100 | > 100 | > 100 | > 100 | > 100 | > 100 |  | > 100 | > 100 | > 100 | > 100 | > 100 | > 100 |  | > 100 | > 100
15 | CC1(C)C/C(=N/O)c2c(nc3ccc4ccccc4c3c2-c2ccc(Cl)cc2)C1 | 33.5 | 15.2 | 43.5 | > 100 | 51 | 35.7 | 34.7 | 30.4 | 27.6 | > 100 | 24 | 29.7 | 46.7 |  | 39.3 | 22.8 | 26.1
